Test results: patent publication US20080090805A1, “CB-1 MODULATING COMPOUNDS AND THEIR USE” (ACADIA PHARMACEUTICALS INC., priority 2005, published 2008)

Biological target: CB1 (mutant) (Homo sapiens, UniProt P21554)
Assay: R-SAT functional receptor assay, CB1 (mutant, truncated after amino acid 417)
Type: cell-based
Settings: Appendix A; R-SAT CB1; receptor form (mutant or wild-type) not stated; read-out: pIC50 (converted)

CB1 (mutant), sequence (P21554 1-417, change not shown): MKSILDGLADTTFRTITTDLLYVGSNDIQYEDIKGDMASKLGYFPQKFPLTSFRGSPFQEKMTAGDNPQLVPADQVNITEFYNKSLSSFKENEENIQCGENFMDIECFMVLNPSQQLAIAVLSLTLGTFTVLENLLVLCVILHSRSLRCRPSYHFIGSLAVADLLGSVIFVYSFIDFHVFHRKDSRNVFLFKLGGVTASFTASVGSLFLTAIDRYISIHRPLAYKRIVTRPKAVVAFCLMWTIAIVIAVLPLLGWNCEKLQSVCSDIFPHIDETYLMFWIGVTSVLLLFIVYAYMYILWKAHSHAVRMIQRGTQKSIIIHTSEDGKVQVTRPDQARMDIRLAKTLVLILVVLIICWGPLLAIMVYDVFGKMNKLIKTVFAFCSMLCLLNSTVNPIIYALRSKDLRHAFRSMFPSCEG

Compound	IC50 [nM]
CCONC(=O)c1ccc2c(c1)N=C(c1ccc(Cl)cc1Cl)c1ccccc1S2	3160
O=C(NCc1ccc(F)cc1)c1ccc2c(c1)N=C(c1ccccc1)c1ccccc1S2 [drawing 745]	7.94
Cc1ccc(CNC(=O)c2ccc3c(c2)N=C(c2ccc(F)cc2)c2ccccc2S3)o1 [drawing 577]	3.16
O=C(NCCc1ccncc1)c1ccc2c(c1)N=C(c1ccc(Cl)cc1Cl)c1ccccc1S2	316
O=C(NCCC(F)(F)F)c1ccc2c(c1)N=C(c1cccc(F)c1)c1ccccc1S2 [drawing 625]	5.01
O=C(NCc1ccc(Cl)cc1Cl)c1ccc2c(c1)N=C(N1CCCCC1)c1ccccc1S2 [drawing 1123]	39.8
CCCC1=Nc2cc(C(=O)N3CCc4ccccc4C3)ccc2Sc2ccccc21	631
O=C(NCc1cccc(Cl)c1)c1ccc2c(c1)N=C(c1ccc(F)cc1)c1ccccc1S2(=O)=O [drawing 833]	12.6
CCCC1=Nc2cc(C(=O)NCCCN3CCN(C4CCCCC4)CC3)ccc2Sc2ccccc21	631
CCCC1=Nc2cc(C(=O)NCCCN(CC(C)C)CC(C)C)ccc2Sc2ccccc21	63.1
O=C(NCc1cccc(Cl)c1)c1ccc2c(c1)N=C(N1CCCCC1)c1cc(F)ccc1S2 [drawing 649]	5.01
O=C(NCc1ccco1)c1ccc2c(c1)N=C(c1cccc(Cl)c1)c1ccccc1S2 [drawing 583]	3.16

Further lines, results first:

IC50 [nM]	Compound
63.1	CCCCNC(=O)c1ccc2c(c1)N=C(c1ccc(Cl)cn1)c1ccc(F)cc1S2 [drawing 632]
15.8	CCCNC(=O)c1ccc2c(c1)N=C(c1ccc(OC)cc1)c1ccccc1S2 [drawing 915]
100	CCCCN(C)C(=O)c1ccc2c(c1)N=C(c1ccc(Cl)s1)c1ccccc1S2
5.01	O=C(NCc1ccccc1)c1ccc2c(c1)N=C(c1ccc(Cl)cc1)c1ccccc1S2 [drawing 647]
200	CCONC(=O)c1ccc2c(c1)N=C(c1cccc(F)c1)c1ccccc1S2
31.6	Cc1ccsc1C1=Nc2cc(C(=O)NCCC(F)(F)F)ccc2Sc2ccccc21 [drawing 1047]
200	CCONC(=O)c1ccc2c(c1)N=C(c1sccc1C)c1ccccc1S2
398	CCONC(=O)c1ccc2c(c1)N=C(c1ccccc1F)c1ccccc1S2
12.6	Cc1ccsc1C1=Nc2cc(C(=O)NCc3ccco3)ccc2Sc2ccccc21 [drawing 855]

Same assay, conditions: Appendix A; R-SAT CB1; receptor form not stated; relative to SR141716 (100%); read-out: % Inhibition

Compound	Emax [%]
Cc1ccsc1C1=Nc2cc(C(=O)NC3CCC(F)(F)CC3)ccc2Sc2ccccc21 [drawing 620]	76
O=C(NCc1ccco1)c1ccc2c(c1)N=C(c1ccccc1Cl)c1ccccc1S2	95
O=C(NCCc1ccccc1)c1ccc2c(c1)N=C(c1cccc(Cl)c1)c1ccccc1S2 [drawing 731]	104
O=C(NCc1ccncc1)c1ccc2c(c1)N=C(c1ccccc1F)c1ccccc1S2	94
O=C(NN1CCCC1)c1ccc2c(c1)N=C(c1cccc(Cl)c1)c1ccccc1S2	85
O=C(NN1CCCCC1)c1ccc2c(c1)N=C(N1CCOCC1)c1ccccc1S2	76
CC(C)CNC(=O)c1ccc2c(c1)N=C(c1ccc(Br)cc1)c1ccccc1S2 [drawing 781]	80
NS(=O)(=O)c1ccc(CNC(=O)c2ccc3c(c2)N=C(c2ccc(F)cc2)c2ccccc2S3)cc1 [drawing 812]	83
O=C(NCc1ccccc1Cl)c1ccc2c(c1)N=C(c1ccc(Cl)cc1)c1ccccc1S2 [drawing 1089]	95
CCONC(=O)c1ccc2c(c1)N=C(c1ccc(Cl)cc1Cl)c1ccccc1S2	37
O=C(NCc1ccc(F)cc1)c1ccc2c(c1)N=C(c1ccccc1)c1ccccc1S2 [drawing 745]	108
N#Cc1ccc(C2=Nc3cc(C(=O)NNCc4ccccc4)ccc3Sc3ccccc32)cc1 [drawing 1174]	58
Cc1ccc(CNC(=O)c2ccc3c(c2)N=C(c2ccc(F)cc2)c2ccccc2S3)o1 [drawing 577]	65
O=C(NCCc1ccncc1)c1ccc2c(c1)N=C(c1ccc(Cl)cc1Cl)c1ccccc1S2	72
O=C(NCCC(F)(F)F)c1ccc2c(c1)N=C(c1cccc(F)c1)c1ccccc1S2 [drawing 625]	85
O=C(NCc1ccc(Cl)cc1Cl)c1ccc2c(c1)N=C(N1CCCCC1)c1ccccc1S2 [drawing 1123]	101
CCCC1=Nc2cc(C(=O)N3CCc4ccccc4C3)ccc2Sc2ccccc21	95
CCCC1=Nc2cc(C(=O)NCCCN3CCC(Cc4ccccc4)CC3)ccc2Sc2ccccc21	115
O=C(NCc1cccc(Cl)c1)c1ccc2c(c1)N=C(c1ccc(F)cc1)c1ccccc1S2(=O)=O [drawing 833]	108
CCCC1=Nc2cc(C(=O)NCCCN3CCN(C4CCCCC4)CC3)ccc2Sc2ccccc21	118
O=C(NC1CCCCC1)c1ccc2c(c1)N=C(c1ccccn1)c1ccccc1S2 [drawing 598]	112
CCCC1=Nc2cc(C(=O)NCCCN(CC(C)C)CC(C)C)ccc2Sc2ccccc21	103
O=C(NCc1cccc(Cl)c1)c1ccc2c(c1)N=C(N1CCCCC1)c1cc(F)ccc1S2 [drawing 649]	107
O=C(NCCc1cccnc1)c1ccc2c(c1)N=C(c1cccc(F)c1)c1ccccc1S2 [drawing 981]	94
O=C(NCc1ccco1)c1ccc2c(c1)N=C(c1cccc(Cl)c1)c1ccccc1S2 [drawing 583]	100

Next, values leading:

Emax [%]	Compound
0	CON(C)C(=O)c1ccc2c(c1)N=C(c1ccc(Cl)c(Cl)c1)c1ccccc1S2
95	CCCCNC(=O)c1ccc2c(c1)N=C(c1ccc(Cl)cn1)c1ccc(F)cc1S2 [drawing 632]
112	CCCNC(=O)c1ccc2c(c1)N=C(c1ccc(OC)cc1)c1ccccc1S2 [drawing 915]
87	CCCCN(C)C(=O)c1ccc2c(c1)N=C(c1ccc(Cl)s1)c1ccccc1S2
91	COc1ccccc1C1=Nc2cc(C(=O)NCCC(C)C)ccc2Sc2ccccc21
105	O=C(NCc1ccccc1)c1ccc2c(c1)N=C(c1ccc(Cl)cc1)c1ccccc1S2 [drawing 647]
81	CCONC(=O)c1ccc2c(c1)N=C(c1cccc(F)c1)c1ccccc1S2
101	Cc1ccsc1C1=Nc2cc(C(=O)NCCC(F)(F)F)ccc2Sc2ccccc21 [drawing 1047]
77	CCONC(=O)c1ccc2c(c1)N=C(c1sccc1C)c1ccccc1S2
73	CCONC(=O)c1ccc2c(c1)N=C(c1ccccc1F)c1ccccc1S2
100	Cc1ccsc1C1=Nc2cc(C(=O)NCc3ccco3)ccc2Sc2ccccc21 [drawing 855]
85	CCCCNC(=O)c1ccc2c(c1)N=C(c1ncccc1C)c1ccccc1S2

Same assay, conditions: pIC50, Appendix A; R-SAT CB1; receptor form (mutant or wild-type) not stated

Compound	IC50 [nM]
Cc1ccsc1C1=Nc2cc(C(=O)NC3CCC(F)(F)CC3)ccc2Sc2ccccc21 [drawing 620]	63.1
O=C(NCCc1ccccc1)c1ccc2c(c1)N=C(c1cccc(Cl)c1)c1ccccc1S2 [drawing 731]	7.94
CC(C)CNC(=O)c1ccc2c(c1)N=C(c1ccc(Br)cc1)c1ccccc1S2 [drawing 781]	10
O=C(NCc1ccccc1Cl)c1ccc2c(c1)N=C(c1ccc(Cl)cc1)c1ccccc1S2 [drawing 1089]	31.6
O=C(NC1CCCCC1)c1ccc2c(c1)N=C(c1ccccn1)c1ccccc1S2 [drawing 598]	50.1
O=C(NCCc1cccnc1)c1ccc2c(c1)N=C(c1cccc(F)c1)c1ccccc1S2 [drawing 981]	20
